The record followed here is paper PMC8617627, “Novel DYRK1A Inhibitor Rescues Learning and Memory Deficits in a Mouse Model of Down Syndrome” (Pharmaceuticals, 2021).

As usually defined, the remaining activity is the signal under treatment as a percentage of the control signal.

Common to all, as to assay: Kinase profile (33P ATP filter binding)
Common to all, as to type: biochemical

One assay addresses RIPK2 (Homo sapiens, UniProt O43353). Conditions: read-out: Remaining protein kinase activity. As to the method:
(§1) The compounds were diluted to the appropriate concentration. The compounds were added to a “mother plate” consisting of samples, controls, and blanks. These serve as the source for “daughter plates” which are stored at −20 °C until assay initiation. Protein Kinases: Enzyme/Substrate mixture was added to the compound, and the compounds were incubated for five minutes at room temperature (RT). ^33P ATP was added to the compounds to initiate the assay. Orthophosphoric acid was added to the compounds to halt the assay. Assay components were harvested onto P81 filter plates, filter plates were air-dried, scintillation fluid was added to plates, and counts were read on a Topcount NXT. A mean percentage activity was calculated.

The target of a further assay is T1, EIF2AK3 (Homo sapiens, UniProt Q9NZJ5).
T1 sequence (Q9NZJ5 30-1116): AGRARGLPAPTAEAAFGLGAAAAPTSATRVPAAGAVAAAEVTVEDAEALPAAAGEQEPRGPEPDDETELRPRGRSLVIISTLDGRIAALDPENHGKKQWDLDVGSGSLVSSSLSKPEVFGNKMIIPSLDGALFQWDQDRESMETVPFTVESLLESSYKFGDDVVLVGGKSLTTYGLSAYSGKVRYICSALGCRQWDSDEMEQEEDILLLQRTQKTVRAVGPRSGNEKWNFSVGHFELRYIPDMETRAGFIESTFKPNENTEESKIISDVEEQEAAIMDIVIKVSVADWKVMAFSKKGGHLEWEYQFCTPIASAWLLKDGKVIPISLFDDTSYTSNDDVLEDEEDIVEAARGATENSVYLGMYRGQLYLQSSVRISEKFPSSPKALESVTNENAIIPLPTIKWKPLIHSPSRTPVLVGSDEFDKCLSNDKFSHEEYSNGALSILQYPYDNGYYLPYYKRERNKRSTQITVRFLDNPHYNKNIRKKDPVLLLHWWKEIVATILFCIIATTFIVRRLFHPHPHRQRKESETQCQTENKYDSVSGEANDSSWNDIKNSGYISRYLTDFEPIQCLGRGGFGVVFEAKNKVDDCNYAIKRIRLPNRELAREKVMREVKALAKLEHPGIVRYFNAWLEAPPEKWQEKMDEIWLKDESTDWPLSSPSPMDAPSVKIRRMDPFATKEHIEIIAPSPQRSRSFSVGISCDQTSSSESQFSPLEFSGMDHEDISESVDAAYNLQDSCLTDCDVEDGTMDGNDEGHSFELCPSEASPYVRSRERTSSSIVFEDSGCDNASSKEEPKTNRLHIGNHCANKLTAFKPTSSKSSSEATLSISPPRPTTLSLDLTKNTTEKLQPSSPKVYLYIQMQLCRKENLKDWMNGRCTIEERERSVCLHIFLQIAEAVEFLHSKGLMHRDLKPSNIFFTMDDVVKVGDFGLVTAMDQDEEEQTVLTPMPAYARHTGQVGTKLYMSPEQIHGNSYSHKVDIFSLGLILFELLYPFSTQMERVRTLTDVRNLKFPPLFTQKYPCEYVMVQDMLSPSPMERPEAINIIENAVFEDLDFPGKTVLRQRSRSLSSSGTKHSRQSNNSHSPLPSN
The following applies: read-out: Remaining protein kinase activity. As to the method: as §1

The target of the next assay is T2, EPH-B4 (Homo sapiens, UniProt P54760).
T2 sequence (P54760 16-987): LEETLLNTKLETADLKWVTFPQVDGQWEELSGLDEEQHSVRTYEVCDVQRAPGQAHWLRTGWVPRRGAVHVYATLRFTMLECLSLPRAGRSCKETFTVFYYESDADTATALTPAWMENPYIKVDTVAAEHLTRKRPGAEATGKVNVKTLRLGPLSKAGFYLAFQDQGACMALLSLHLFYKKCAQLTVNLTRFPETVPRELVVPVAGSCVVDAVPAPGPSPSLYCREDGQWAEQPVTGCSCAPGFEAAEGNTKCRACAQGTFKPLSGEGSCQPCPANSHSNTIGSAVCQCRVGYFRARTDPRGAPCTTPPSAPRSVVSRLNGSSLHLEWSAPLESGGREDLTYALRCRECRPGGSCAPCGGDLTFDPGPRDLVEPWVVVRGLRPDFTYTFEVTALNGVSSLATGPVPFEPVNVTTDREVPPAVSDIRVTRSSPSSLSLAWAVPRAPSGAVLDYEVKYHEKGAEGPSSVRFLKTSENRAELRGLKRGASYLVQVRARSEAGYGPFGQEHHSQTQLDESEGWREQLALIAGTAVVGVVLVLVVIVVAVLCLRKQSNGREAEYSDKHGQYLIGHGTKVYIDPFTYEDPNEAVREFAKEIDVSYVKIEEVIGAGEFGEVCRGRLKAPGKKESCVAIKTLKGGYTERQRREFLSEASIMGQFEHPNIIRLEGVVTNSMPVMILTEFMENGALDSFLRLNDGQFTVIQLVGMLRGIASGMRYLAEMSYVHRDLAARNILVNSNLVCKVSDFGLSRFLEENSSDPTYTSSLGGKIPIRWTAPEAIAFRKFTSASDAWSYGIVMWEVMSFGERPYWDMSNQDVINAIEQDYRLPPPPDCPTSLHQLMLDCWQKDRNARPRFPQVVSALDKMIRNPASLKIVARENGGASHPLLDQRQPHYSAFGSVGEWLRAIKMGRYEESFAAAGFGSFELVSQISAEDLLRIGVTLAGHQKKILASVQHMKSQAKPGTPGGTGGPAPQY
Conditions: read-out: Remaining protein kinase activity. As to the method: as §1

In another assay the target is PKCγ (Homo sapiens, UniProt P05129). The following applies: read-out: Remaining protein kinase activity. Here is the method:
as §1

The next assay deals with CDK2-Cyclin A (Homo sapiens, UniProt P24941). Here is the method: as §1
For the next assay, the target named is TIE2 (Homo sapiens, UniProt Q02763). Conditions: read-out: Remaining protein kinase activity. As to the method:
as §1

Another assay has as its target MST4 (Homo sapiens, UniProt Q9P289). The following applies: read-out: Remaining protein kinase activity. As to the method:
as §1

The target of the next assay is MLK3 (Homo sapiens, UniProt Q16584). As to the method: as §1
MLK3, sequence (Q16584 whole entry): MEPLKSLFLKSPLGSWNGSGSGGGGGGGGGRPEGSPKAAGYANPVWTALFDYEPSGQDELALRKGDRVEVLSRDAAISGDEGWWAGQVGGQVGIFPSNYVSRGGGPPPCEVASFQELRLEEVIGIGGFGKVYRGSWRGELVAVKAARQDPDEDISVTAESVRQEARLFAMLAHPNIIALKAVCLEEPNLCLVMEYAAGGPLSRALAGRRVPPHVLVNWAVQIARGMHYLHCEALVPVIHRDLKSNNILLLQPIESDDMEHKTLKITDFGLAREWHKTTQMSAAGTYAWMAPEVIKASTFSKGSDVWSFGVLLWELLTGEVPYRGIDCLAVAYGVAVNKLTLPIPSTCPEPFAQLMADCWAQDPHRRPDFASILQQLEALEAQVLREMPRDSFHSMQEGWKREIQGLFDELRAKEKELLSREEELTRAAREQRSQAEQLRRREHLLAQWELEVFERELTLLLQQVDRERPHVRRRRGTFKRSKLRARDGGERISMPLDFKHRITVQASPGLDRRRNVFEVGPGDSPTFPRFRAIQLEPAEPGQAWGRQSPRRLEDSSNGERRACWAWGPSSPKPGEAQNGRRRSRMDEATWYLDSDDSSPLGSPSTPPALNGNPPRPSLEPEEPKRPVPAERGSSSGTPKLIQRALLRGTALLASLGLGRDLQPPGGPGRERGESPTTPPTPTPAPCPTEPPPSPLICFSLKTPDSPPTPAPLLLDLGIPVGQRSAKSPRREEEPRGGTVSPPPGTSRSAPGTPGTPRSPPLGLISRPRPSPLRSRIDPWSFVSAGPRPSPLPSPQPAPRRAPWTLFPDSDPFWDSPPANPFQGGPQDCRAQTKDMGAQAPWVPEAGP

Molecules are shown by their SMILES. Read-outs that look alike come from different tables or passages of the source.

TIE2, sequence (Q02763 23-1124): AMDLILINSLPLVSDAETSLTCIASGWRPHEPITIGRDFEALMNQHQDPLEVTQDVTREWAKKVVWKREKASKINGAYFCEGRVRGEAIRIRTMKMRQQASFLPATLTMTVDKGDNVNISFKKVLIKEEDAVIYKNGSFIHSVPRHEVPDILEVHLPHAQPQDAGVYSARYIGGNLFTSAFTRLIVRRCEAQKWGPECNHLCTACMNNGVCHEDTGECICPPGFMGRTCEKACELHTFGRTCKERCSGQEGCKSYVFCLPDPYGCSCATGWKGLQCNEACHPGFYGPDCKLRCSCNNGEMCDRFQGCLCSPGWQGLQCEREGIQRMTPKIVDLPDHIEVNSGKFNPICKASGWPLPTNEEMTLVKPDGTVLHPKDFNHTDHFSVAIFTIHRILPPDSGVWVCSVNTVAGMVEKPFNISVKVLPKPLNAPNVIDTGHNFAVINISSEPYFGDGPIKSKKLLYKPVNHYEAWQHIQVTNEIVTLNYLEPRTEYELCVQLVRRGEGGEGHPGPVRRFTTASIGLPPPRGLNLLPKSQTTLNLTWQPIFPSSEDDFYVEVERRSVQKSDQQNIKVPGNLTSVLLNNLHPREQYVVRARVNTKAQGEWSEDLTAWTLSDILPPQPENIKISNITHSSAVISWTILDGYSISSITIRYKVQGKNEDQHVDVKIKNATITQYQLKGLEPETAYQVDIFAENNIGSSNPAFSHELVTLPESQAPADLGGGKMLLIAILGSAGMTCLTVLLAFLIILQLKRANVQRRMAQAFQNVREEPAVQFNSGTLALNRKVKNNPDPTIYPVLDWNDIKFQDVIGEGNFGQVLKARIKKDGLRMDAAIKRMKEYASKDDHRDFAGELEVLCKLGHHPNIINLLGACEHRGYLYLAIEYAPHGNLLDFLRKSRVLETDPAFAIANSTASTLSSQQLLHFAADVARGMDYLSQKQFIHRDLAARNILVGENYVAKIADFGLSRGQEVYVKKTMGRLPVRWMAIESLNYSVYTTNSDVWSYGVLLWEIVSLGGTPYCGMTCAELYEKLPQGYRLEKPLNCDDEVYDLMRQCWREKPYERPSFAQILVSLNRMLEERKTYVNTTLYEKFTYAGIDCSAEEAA
MST4, sequence (Q9P289 whole entry): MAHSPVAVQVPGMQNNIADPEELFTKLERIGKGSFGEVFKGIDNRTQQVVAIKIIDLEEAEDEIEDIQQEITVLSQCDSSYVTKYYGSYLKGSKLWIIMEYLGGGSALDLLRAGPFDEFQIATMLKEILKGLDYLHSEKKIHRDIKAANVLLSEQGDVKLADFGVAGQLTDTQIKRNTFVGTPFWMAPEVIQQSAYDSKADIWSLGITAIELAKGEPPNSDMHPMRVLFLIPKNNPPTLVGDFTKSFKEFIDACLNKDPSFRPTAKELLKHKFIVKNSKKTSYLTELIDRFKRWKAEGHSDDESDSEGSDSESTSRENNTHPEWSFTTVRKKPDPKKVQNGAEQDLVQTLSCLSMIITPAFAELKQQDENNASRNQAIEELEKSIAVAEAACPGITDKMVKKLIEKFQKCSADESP
RIPK2, sequence (O43353 whole entry): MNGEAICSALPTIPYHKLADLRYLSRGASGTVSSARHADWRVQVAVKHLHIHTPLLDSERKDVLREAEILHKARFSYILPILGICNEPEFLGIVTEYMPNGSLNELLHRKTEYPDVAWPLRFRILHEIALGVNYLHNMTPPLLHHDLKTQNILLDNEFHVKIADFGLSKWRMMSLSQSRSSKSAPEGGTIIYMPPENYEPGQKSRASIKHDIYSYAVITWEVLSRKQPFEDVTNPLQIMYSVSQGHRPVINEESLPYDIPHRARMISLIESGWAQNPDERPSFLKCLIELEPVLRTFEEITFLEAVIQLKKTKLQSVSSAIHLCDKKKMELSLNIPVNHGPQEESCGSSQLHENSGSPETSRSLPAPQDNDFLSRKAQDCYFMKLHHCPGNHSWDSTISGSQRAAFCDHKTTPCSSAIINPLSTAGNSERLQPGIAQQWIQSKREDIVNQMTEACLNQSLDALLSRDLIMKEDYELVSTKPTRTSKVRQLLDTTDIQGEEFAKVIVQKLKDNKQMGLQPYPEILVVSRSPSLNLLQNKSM

Turning to `COc1ccc2sc(-c3cncc(NC(C)=O)c3)nc2c1` [PST-001, N-(5-(5-Methoxybenzo[d]thiazol-2-yl)pyridin-3-yl)acetamide], the remaining activity at 1 µM came out at 109% at RIPK2; 123% at EIF2AK3; 125% at PKCγ; 129% on TIE2; 112% on MST4. Further, the remaining activity at 100 µM on EIF2AK3 worked out at 118%; at EPH-B4, 130%; at PKCγ, 124%; on TIE2, 133%; on MST4, 113%. Besides, the “Remaining protein kinase activity” value on CDK2-Cyclin A (1 μM) is 110%; at CDK2-Cyclin A (100 μM), 69%; on MLK3 (1 μM), 109%; on MLK3 (100 μM) it was 60%.

In the case of `COc1ccc2sc(-c3cncc(N)c3)nc2c1` [compound 1, 5-(5-Methoxybenzo[d]thiazol-2-yl)pyridin-3-amine], the remaining activity at 1 µM on RIPK2 (RIPK2, 1 μM) came out at 104%; on EIF2AK3 (EIF2AK3, 1 μM) it was 122%; on EPH-B4 (EPH-B4, 1 μM) it was 112%; on PKCγ (PKCγ, 1 μM), 115%; at TIE2 (TIE2, 1 μM) it was 135%; on MST4 (MST4, 1 μM) it was 101%. Also, the remaining activity at 100 µM is 20% on RIPK2 (RIPK2, 100 μM); 84% at EIF2AK3 (EIF2AK3, 100 μM); 97% at EPH-B4 (EPH-B4, 100 μM); 61% on PKCγ (PKCγ, 100 μM); 85% on TIE2 (TIE2, 100 μM); 72% at MST4 (MST4, 100 μM). Besides, the “Remaining protein kinase activity” value at CDK2-Cyclin A (1 μM) is recorded as 96%; on CDK2-Cyclin A (100 μM), 19%; at MLK3 (1 μM), 101%; at MLK3 (100 μM) it was 29%.
